Reference: ChEMBL document CHEMBL3045102, “Antibacterial, antifungal and antioxidant activity of some new water-soluble -diketones” (2013)
≈ marks a conversion by molar mass, not a printed value.

What was measured:
Type in all cases: functional
[1] = test system: Radical scavenging activity; assay: Antioxidant activity assessed as decrease in DPPH free radical level after 20 min by DPPH assay method; set-up: concentration or dose not given beside the values
[2] = test system: Nakaseomyces glabratus; assay: Antifungal activity against Candida glabrata ATCC 36583 after 48 hr by turbidity based microplate metohd; details: ATCC 36583, 48 h
[3] = test system: Candida albicans; assay: Antifungal activity against Candida albicans ATCC 10231 after 48 hr by turbidity based microplate metohd; details: ATCC 10231, 48 h
[4] = test system: Escherichia coli; assay: Antibacterial activity against Escherichia coli ATCC 25922 after 24 hr by spectrophotometric method; details: ATCC 25922, 24 h
[5] = test system: Bacillus subtilis; assay: Antibacterial activity against Bacillus subtilis ATCC 6633 after 24 hr by spectrophotometric method; details: ATCC 6633, 24 h
[6] = test system: Staphylococcus aureus; assay: Antibacterial activity against Staphylococcus aureus ATCC 25923 after 24 hr by spectrophotometric method; details: ATCC 25923, 24 h
[7] = test system: Pseudomonas aeruginosa; assay: Antibacterial activity against Pseudomonas aeruginosa ATCC 27853 after 24 hr by sepctrophotometric method; details: ATCC 27853, 24 h

Structure (SMILES) | inhibition [1] | MIC [2] | MIC [3] | MIC [4] | MIC [5] | MIC [6] | MIC [7]
O=C1O[C@H]([C@@H](O)CO)C(O)=C1O | 98% |  |  |  |  |  | 
OC(Cn1cncn1)(Cn1cncn1)c1ccc(F)cc1F [FLUCONAZOLE] |  | 10 µg/mL (≈ 32.7 µM) | 10 µg/mL (≈ 32.7 µM) |  |  |  | 
O=C(CC(=O)c1ccc(O[C@@H]2O[C@H](CO)[C@@H](O)[C@H](O)[C@H]2O)cc1O)c1cccnc1 | 74.2% | 5000 µg/mL (≈ 11900 µM) | 10000 µg/mL (≈ 23800 µM) | 300 µg/mL (≈ 715 µM) | 625 µg/mL (≈ 1490 µM) | 150 µg/mL (≈ 358 µM) | 1250 µg/mL (≈ 2980 µM)
O=C(CC(=O)c1ccc(O[C@@H]2O[C@H](CO)[C@@H](O)[C@H](O)[C@H]2O)cc1O)c1cccs1 | 74.2% | 5000 µg/mL (≈ 11800 µM) | 2500 µg/mL (≈ 5890 µM) | 1250 µg/mL (≈ 2950 µM) | 150 µg/mL (≈ 353 µM) | 300 µg/mL (≈ 707 µM) | 150 µg/mL (≈ 353 µM)
O=C(CC(=O)c1cc(Cl)c(O[C@@H]2O[C@H](CO)[C@@H](O)[C@H](O)[C@H]2O)cc1O)c1cccs1 | 81.2% | 150 µg/mL (≈ 327 µM) | 5000 µg/mL (≈ 10900 µM) | 5000 µg/mL (≈ 10900 µM) | 625 µg/mL (≈ 1360 µM) | 300 µg/mL (≈ 654 µM) | 30 µg/mL (≈ 65.4 µM)
O=C(CC(=O)c1cc(Cl)c(O[C@@H]2O[C@H](CO)[C@@H](O)[C@H](O)[C@H]2O)cc1O)c1ccccn1 | 85.5% | 2500 µg/mL (≈ 5510 µM) | 150 µg/mL (≈ 331 µM) | 19 µg/mL (≈ 41.9 µM) | 1250 µg/mL (≈ 2750 µM) | 150 µg/mL (≈ 331 µM) | 19 µg/mL (≈ 41.9 µM)
CC1(C)S[C@@H]2[C@H](NC(=O)[C@H](N)c3ccccc3)C(=O)N2[C@H]1C(=O)O [AMPICILLIN] |  |  |  | 10 µg/mL (≈ 28.6 µM) | 5 µg/mL (≈ 14.3 µM) | 19 µg/mL (≈ 54.4 µM) | 5 µg/mL (≈ 14.3 µM)
O=C(CC(=O)c1cc(Cl)c(O[C@@H]2O[C@H](CO)[C@@H](O)[C@H](O)[C@H]2O)cc1O)c1ccco1 | 77% | 5000 µg/mL (≈ 11300 µM) | 2500 µg/mL (≈ 5650 µM) | 70 µg/mL (≈ 158 µM) | 300 µg/mL (≈ 678 µM) | 150 µg/mL (≈ 339 µM) | 19 µg/mL (≈ 42.9 µM)
O=C(CC(=O)c1ccc(O[C@@H]2O[C@H](CO)[C@@H](O)[C@H](O)[C@H]2O)cc1O)c1ccccn1 | 79% | 5000 µg/mL (≈ 11900 µM) | 2500 µg/mL (≈ 5960 µM) | 70 µg/mL (≈ 167 µM) | 300 µg/mL (≈ 715 µM) | 150 µg/mL (≈ 358 µM) | 19 µg/mL (≈ 45.3 µM)
O=C(CC(=O)c1cc(Cl)c(O[C@@H]2O[C@H](CO)[C@@H](O)[C@H](O)[C@H]2O)cc1O)c1cccnc1 | 79.5% | 10000 µg/mL (≈ 22000 µM) | 10000 µg/mL (≈ 22000 µM) | 5000 µg/mL (≈ 11000 µM) | 300 µg/mL (≈ 661 µM) | 5000 µg/mL (≈ 11000 µM) | 5000 µg/mL (≈ 11000 µM)
O=C(CC(=O)c1ccc(O[C@@H]2O[C@H](CO)[C@@H](O)[C@H](O)[C@H]2O)cc1O)c1ccco1 | 84.3% | 5000 µg/mL (≈ 12200 µM) | 5000 µg/mL (≈ 12200 µM) | 2500 µg/mL (≈ 6120 µM) | 150 µg/mL (≈ 367 µM) | 625 µg/mL (≈ 1530 µM) | 5000 µg/mL (≈ 12200 µM)
